Test results: patent publication US10206394B2, “Herbicidal compounds” (Syngenta Participations AG, priority 2014, dated 2019)
Like-named read-outs stand apart in the source and are kept apart here.

Tests used:
Assay in all cases: Glasshouse assay for herbicidal activity (pre- and post-emergence), percentage phytotoxicity
Assay type in all cases: in vivo
Avena fatua (AVEFA) = conditions: Avena fatua
Summary of the method: (§1)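 Sow seed in standard soil in pots; apply test herbicide after 1 day (PRE) or about 12 days (POST). Grow on in the glasshouse, watering twice daily, cool-season species at 20/16 °C and warm-season at 24/18 °C. Score visible damage (0–100%) at 20 or 15 DAA respectively.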

[1] = test system: Alopecurus myosuroides (ALOMY); conditions: Alopecurus myosuroides
Summary of the method: as §1

Lolium perenne (LOLPE) = conditions: Lolium perenne
Summary of the method: as §1

[2] = test system: Echinochloa crus-galli (ECHCG); conditions: Echinochloa crus-galli
Summary of the method: as §1

[3] = post-emergence, 360 h, 250 g/ha, post-emergence, 15 DAA, visual assessment (100%=total damage, 0%=no damage), read-out: Post-emergence herbicidal activity (percentage phytotoxicity) AVEFA POST
[4] = pre-emergence, 480 h, 250 g/ha, pre-emergence, 20 DAA, visual assessment (100%=total damage, 0%=no damage), read-out: Pre-emergence herbicidal activity (percentage phytotoxicity) AVEFA PRE
[5] = post-emergence, 360 h, 250 g/ha, post-emergence, 15 DAA, visual assessment (100%=total damage, 0%=no damage), read-out: Post-emergence herbicidal activity (percentage phytotoxicity) ALOMY POST
[6] = pre-emergence, 480 h, 250 g/ha, pre-emergence, 20 DAA, visual assessment (100%=total damage, 0%=no damage), read-out: Pre-emergence herbicidal activity (percentage phytotoxicity) ALOMY PRE
[7] = post-emergence, 360 h, 250 g/ha, post-emergence, 15 DAA, visual assessment (100%=total damage, 0%=no damage), read-out: Post-emergence herbicidal activity (percentage phytotoxicity) LOLPE POST
[8] = pre-emergence, 480 h, 250 g/ha, pre-emergence, 20 DAA, visual assessment (100%=total damage, 0%=no damage), read-out: Pre-emergence herbicidal activity (percentage phytotoxicity) LOLPE PRE
[9] = post-emergence, 360 h, 250 g/ha, post-emergence, 15 DAA, visual assessment (100%=total damage, 0%=no damage), read-out: Post-emergence herbicidal activity (percentage phytotoxicity) ECHCG POST
[10] = pre-emergence, 480 h, 250 g/ha, pre-emergence, 20 DAA, visual assessment (100%=total damage, 0%=no damage), read-out: Pre-emergence herbicidal activity (percentage phytotoxicity) ECHCG PRE
[11] = post-emergence, 360 h, POST-emergence, rate 250 g/ha, visual score 15 DAA (100%=total damage, 0%=no damage), read-out: Post-emergence herbicidal activity (percentage phytotoxicity) AVEFA POST
[12] = pre-emergence, 480 h, PRE-emergence, rate 250 g/ha, visual score 20 DAA (100%=total damage, 0%=no damage), read-out: Pre-emergence herbicidal activity (percentage phytotoxicity) AVEFA PRE
[13] = post-emergence, 360 h, POST-emergence, rate 250 g/ha, visual score 15 DAA (100%=total damage, 0%=no damage), read-out: Post-emergence herbicidal activity (percentage phytotoxicity) ALOMY POST
[14] = pre-emergence, 480 h, PRE-emergence, rate 250 g/ha, visual score 20 DAA (100%=total damage, 0%=no damage), read-out: Pre-emergence herbicidal activity (percentage phytotoxicity) ALOMY PRE
[15] = post-emergence, 360 h, POST-emergence, rate 250 g/ha, visual score 15 DAA (100%=total damage, 0%=no damage), read-out: Post-emergence herbicidal activity (percentage phytotoxicity) LOLPE POST
[16] = pre-emergence, 480 h, PRE-emergence, rate 250 g/ha, visual score 20 DAA (100%=total damage, 0%=no damage), read-out: Pre-emergence herbicidal activity (percentage phytotoxicity) LOLPE PRE
[17] = post-emergence, 360 h, POST-emergence, rate 250 g/ha, visual score 15 DAA (100%=total damage, 0%=no damage), read-out: Post-emergence herbicidal activity (percentage phytotoxicity) ECHCG POST
[18] = pre-emergence, 480 h, PRE-emergence, rate 250 g/ha, visual score 20 DAA (100%=total damage, 0%=no damage), read-out: Pre-emergence herbicidal activity (percentage phytotoxicity) ECHCG PRE

| SMILES | pest or weed control at 250 g/ha (Avena fatua (AVEFA); [3]) | pest or weed control at 250 g/ha (Avena fatua (AVEFA); [4]) | pest or weed control at 250 g/ha [1, 5] | pest or weed control at 250 g/ha [1, 6] | pest or weed control at 250 g/ha (Lolium perenne (LOLPE); [7]) | pest or weed control at 250 g/ha (Lolium perenne (LOLPE); [8]) | pest or weed control at 250 g/ha [2, 9] | pest or weed control at 250 g/ha [2, 10] | pest or weed control at 250 g/ha (Avena fatua (AVEFA); [11]) | pest or weed control at 250 g/ha (Avena fatua (AVEFA); [12]) | pest or weed control at 250 g/ha [1, 13] | pest or weed control at 250 g/ha [1, 14] | pest or weed control at 250 g/ha (Lolium perenne (LOLPE); [15]) | pest or weed control at 250 g/ha (Lolium perenne (LOLPE); [16]) | pest or weed control at 250 g/ha [2, 17] | pest or weed control at 250 g/ha [2, 18] |
| --- | --- | --- | --- | --- | --- | --- | --- | --- | --- | --- | --- | --- | --- | --- | --- | --- |
| Cc1cc(C)c(C2C(=O)CC(CC(=O)NCC3CC3C(F)F)C2=O)c(C)c1 (centres unmarked) [Compound B60] | 80% | 60% | 80% | 90% | 80% | 80% | 90% | 90% | – | – | – | – | – | – | – | – |
| CC#Cc1cc(C)c(C2C(=O)CC(CC(=O)NCc3ccc(C#N)cc3)C2=O)c(C)c1 (centres unmarked) [Compound B186] | – | – | – | – | – | – | – | – | 90% | 100% | 90% | 90% | 90% | 90% | 100% | 100% |
| CCc1cc(OCC(F)(F)F)cc(C)c1C1C(=O)CC(CC(=O)NC(C)C)C1=O (centres unmarked) [Compound B217] | – | – | – | – | – | – | – | – | 100% | 100% | 100% | 100% | 100% | 100% | 100% | 100% |
| CCc1cc(C)cc(C)c1C1C(=O)CC(CC(=O)NC(C)(C)C)C1=O (centres unmarked) [Compound B170] | – | – | – | – | – | – | – | – | 90% | 90% | 100% | 100% | 100% | 100% | 100% | 100% |
| Cc1cc(C)c(C2C(=O)CC(CC(=O)NCc3ccccc3Cl)C2=O)c(C)c1 (centres unmarked) [Compound B17] | 50% | 0% | 40% | 20% | 70% | 90% | 70% | 90% | – | – | – | – | – | – | – | – |
| Cc1cc(C)c(C2C(=O)CC(CC(=O)Nc3ccc(F)cc3F)C2=O)c(C)c1 (centres unmarked) [Compound B3] | 10% | 50% | 0% | 60% | 80% | 90% | 70% | 90% | – | – | – | – | – | – | – | – |
| Cc1cc(-c2cc(C#N)c(F)cn2)cc(C)c1C1C(=O)CC(CC(=O)NC(C)(C)C)C1=O (centres unmarked) [Compound B99] | 20% | 30% | 70% | 70% | 80% | 80% | 80% | 70% | – | – | – | – | – | – | – | – |
